This experiment has as its target T1, human P2X4 (Homo sapiens, UniProt Q99571).
T1 sequence (Q99571 1-388): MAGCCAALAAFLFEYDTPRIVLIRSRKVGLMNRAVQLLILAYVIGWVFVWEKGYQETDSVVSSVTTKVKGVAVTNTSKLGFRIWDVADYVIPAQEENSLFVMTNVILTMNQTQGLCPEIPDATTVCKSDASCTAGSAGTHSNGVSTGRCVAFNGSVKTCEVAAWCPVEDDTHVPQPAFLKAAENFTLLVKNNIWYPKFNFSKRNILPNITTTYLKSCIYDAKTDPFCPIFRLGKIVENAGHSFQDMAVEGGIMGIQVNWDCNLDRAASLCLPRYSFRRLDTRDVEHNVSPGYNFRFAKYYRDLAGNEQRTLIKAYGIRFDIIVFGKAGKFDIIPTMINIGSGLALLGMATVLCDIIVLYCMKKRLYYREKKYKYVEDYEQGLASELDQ
Kind of experiment: Human P2X4 HEK Cell FLIPR Assay. The format is cell-based. The settings on record: agonist Bz-ATP at EC80; for Emax: HEK293, HEK293 cells, read-out: Human P2X4 HEK Cells (FLIPR Assay) avg Efficacy [%]; for Emax / Human P2X4 HEK Cells (FLIPR Assay) avg Efficacy [%]: percentage of maximal inhibition; for IC50 / Human P2X4 HEK Cells (FLIPR Assay) avg Efficacy [%]: HEK293 cells; for IC50: individual values listed where some fall outside detection range. How it is done:
HEK293 cells stably expressing human P2X4 were plated in poly-D-lysine-coated 384-well plates at a seeding density of 30000 cells/well and incubated overnight. P2X4 function was assessed by measuring intracellular calcium changes using the calcium-chelating dye Fluo8-AM (Molecular Devices) on a fluorescent imaging plate reader (FLEX/FLIPR station; Molecular Devices). On the day of the assay, the medium was removed and the cells were incubated for 30 min at 37° C. and 5% CO2 in 30 μL of dye buffer (Hank's balanced salt solution, 10 mM HEPES, 1.8 mM CaCl2, 1 mM MgCl2, 2 mM probenecid, 5 mM D-glucose monohydrate, 5 μM Fluo8-AM, pH=7.4). Compounds diluted in probenecid buffer (Hank's balanced salt solution, 10 mM HEPES, 1.8 mM CaCl2, 1 mM MgCl2, 2 mM probenecid, 5 mM D-glucose monohydrate, pH=7.4) were added in a volume of 10 μL and allowed to incubate for 30 min at room temperature. The final assay DMSO concentration was 0.5%. The agonist, Bz-ATP (Tocris), was added in a volume of 10 μL at a concentration representing the EC80 value. The EC80 value of Bz-ATP was determined each assay day prior to compound profiling. The fluorescence was measured for an interval of 120 sec at 2 sec intervals. The excitation and emission wavelengths used to monitor fluorescence were 470-495 nm and 515-575 nm, respectively. The data was analyzed based on the increase in peak relative fluorescence units (RFU) compared to the basal fluorescence and the data was normalized to the agonist control. The compounds were tested in triplicates per plate and mean values were plotted in Excel XLFit to determine IC50 values, percentage of maximal inhibition and the Hill coefficients.

Bounds are passed on as bounds.

For orientation: IC50 means the point on the concentration scale where inhibition reaches its midpoint.

Turning to `CC(C(=O)Nc1cnn(-c2ccc(NC(=O)Cc3ccccc3Cl)cc2S(N)(=O)=O)c1)C(F)(F)F` (racemic) [Example 508, N-[1-(4-{[(2-Chlorophenyl)acetyl]amino}-2-sulfamoylphenyl)-1H-pyrazol-4-yl]-3,3,3-trifluoro-2-methylpropanamide], the Emax came out at 63% and the IC50 stood at 172 nM. Regarding `CC(C(=O)Nc1cnn(-c2ccc(NC(=O)Cc3ccccc3Cl)cc2S(N)(=O)=O)c1)C(F)(F)F` (single isomer, unassigned) [Example 509, N-[1-(4-{[(2-Chlorophenyl)acetyl]amino}-2-sulfamoylphenyl)-1H-pyrazol-4-yl]-3,3,3-trifluoro-2-methylpropanamide], the Emax came out at 71% and the IC50 was 326 nM.

For the compound `CC(C(=O)Nc1cnn(-c2ccc(NC(=O)Cc3ccccc3Cl)cc2S(N)(=O)=O)c1)C(F)(F)F` (single isomer, unassigned) [Example 510, N-[1-(4-{[(2-Chlorophenyl)acetyl]amino}-2-sulfamoylphenyl)-1H-pyrazol-4-yl]-3,3,3-trifluoro-2-methylpropanamide], the 50% inhibitory concentration (IC50) came to 439 nM and the “Human P2X4 HEK Cells (FLIPR Assay) avg Efficacy [%]” value is 73%. With `C[C@H]1CC[C@H](C)N1c1cnn(-c2ccc(NC(=O)Cc3ccccc3Cl)cc2S(N)(=O)=O)c1` (single isomer, unassigned) [Example 512, 2-(2-Chlorophenyl)-N-(4-{4-[(trans)-2,5-dimethylpyrrolidin-1-yl]-1H-pyrazol-1-yl}-3-sulfamoylphenyl)acetamide], the Emax was 76% and the IC50 turned out to be 4250 nM. As to `C[C@H]1CC[C@H](C)N1c1cnn(-c2ccc(NC(=O)Cc3ccccc3Cl)cc2S(N)(=O)=O)c1` (single isomer, unassigned) [Example 513, 2-(2-Chlorophenyl)-N-(4-{4-[(trans)-2,5-dimethylpyrrolidin-1-yl]-1H-pyrazol-1-yl}-3-sulfamoylphenyl)acetamide], the IC50 is 893 nM and the “Human P2X4 HEK Cells (FLIPR Assay) avg Efficacy [%]” value is reported as 94%. As for `NS(=O)(=O)c1cc(NC(=O)Cc2ccccc2Cl)ccc1-n1ccc(Cl)cc1=O` [Example 2, N-[4-(4-Chloro-2-oxopyridin-1(2H)-yl)-3-sulfamoylphenyl]-2-(2-chlorophenyl)-acetamide], the Emax worked out at 50% and the IC50 worked out at 19400 nM.

On to `NS(=O)(=O)c1cc(NC(=O)Cc2ccccc2Cl)ccc1-n1cc(Cl)cc(Cl)c1=O` [Example 3, 2-(2-Chlorophenyl)-N-[4-(3,5-dichloro-2-oxopyridin-1(2H)-yl)-3-sulfamoylphenyl]-acetamide], for which the Emax turned out to be 76% and the IC50 came to 942 nM.

On to `NS(=O)(=O)c1cc(NC(=O)Cc2ccccc2Cl)ccc1-n1cccc(Cl)c1=O` [Example 4, N-[4-(3-Chloro-2-oxopyridin-1(2H)-yl)-3-sulfamoylphenyl]-2-(2-chlorophenyl)-acetamide], for which the Emax came out at 83% and the IC50 was 259 nM.

For `Cc1ncn(-c2ccc(NC(=O)Cc3ccccc3Cl)cc2S(N)(=O)=O)n1` [Example 5, 2-(2-Chlorophenyl)-N-[4-(3-methyl-1H-1,2,4-triazol-1-yl)-3-sulfamoylphenyl]-acetamide], the Emax amounted to 91% and the IC50 is 249 nM. For the compound `Cc1ncnn1-c1ccc(NC(=O)Cc2ccccc2Cl)cc1S(N)(=O)=O` [Example 6, 2-(2-Chlorophenyl)-N-[4-(5-methyl-1H-1,2,4-triazol-1-yl)-3-sulfamoylphenyl]-acetamide], the Emax is 84% and the IC50 turned out to be 1070 nM. As for `NS(=O)(=O)c1cc(NC(=O)Cc2ccccc2Cl)ccc1-n1cnc(C(F)(F)F)n1` [Example 7, 2-(2-Chlorophenyl)-N-{3-sulfamoyl-4-[3-(trifluoromethyl)-1H-1,2,4-triazol-1-yl]-phenyl}acetamide], the Emax came out at 73% and the concentration for half-maximal inhibition (IC50) came to 3080 nM.

As for `Cc1nc(C(F)(F)F)nn1-c1ccc(NC(=O)Cc2ccccc2Cl)cc1S(N)(=O)=O` [Example 8, 2-(2-Chlorophenyl)-N-{4-[5-methyl-3-(trifluoromethyl)-1H-1,2,4-triazol-1-yl]-3-sulfamoylphenyl}acetamide], the Emax was 79% and the IC50 came to 2560 nM. Consider `NS(=O)(=O)c1cc(NC(=O)Cc2ccccc2Cl)ccc1-n1ccnc1` [Example 9, 2-(2-Chlorophenyl)-N-[4-(1H-imidazol-1-yl)-3-sulfamoylphenyl]acetamide], for which the Emax was found to be 83% and the IC50 came out at 7 nM. On to `NS(=O)(=O)c1cc(NC(=O)Cc2ccccc2Cl)ccc1-n1cnc(C(F)(F)F)c1` [Example 10, 2-(2-Chlorophenyl)-N-{3-sulfamoyl-4-[4-(trifluoromethyl)-1H-imidazol-1-yl]phenyl}-acetamide], for which the Emax came out at 81% and the IC50 amounted to 7 nM. The matching figures for `NS(=O)(=O)c1cc(NC(=O)Cc2ccccc2Cl)ccc1-n1ccc(C(F)(F)F)n1` [Example 11, 2-(2-Chlorophenyl)-N-{3-sulfamoyl-4-[3-(trifluoromethyl)-1H-pyrazol-1-yl]phenyl}-acetamide]: 31% and more than 25000 nM. Turning to `NS(=O)(=O)c1cc(NC(=O)Cc2ccccc2Cl)ccc1-n1ccc(C(F)F)n1` [Example 12, 2-(2-Chlorophenyl)-N-{4-[3-(difluoromethyl)-1H-pyrazol-1-yl]-3-sulfamoyl-phenyl}acetamide], the Emax stood at 34% and the IC50 was more than 25000 nM. Turning to `NS(=O)(=O)c1cc(NC(=O)Cc2ccccc2Cl)ccc1-n1nc(C(F)F)cc1C1CC1` [Example 13, 2-(2-Chlorophenyl)-N-{4-[5-cyclopropyl-3-(difluoromethyl)-1H-pyrazol-1-yl]-3-sulfamoylphenyl}acetamide], the Emax came to 100% and the IC50 worked out at 514 nM. Consider `Cc1cn(-c2ccc(NC(=O)Cc3ccccc3Cl)cc2S(N)(=O)=O)nc1C(F)(F)F` [Example 14, 2-(2-Chlorophenyl)-N-{4-[4-methyl-3-(trifluoromethyl)-1H-pyrazol-1-yl]-3-sulfamoylphenyl}acetamide], for which the Emax is 26% and the IC50 was more than 25000 nM. For `Cc1cc(C(F)(F)F)nn1-c1ccc(NC(=O)Cc2ccccc2Cl)cc1S(N)(=O)=O` [Example 15, 2-(2-Chlorophenyl)-N-{4-[5-methyl-3-(trifluoromethyl)-1H-pyrazol-1-yl]-3-sulfamoylphenyl}acetamide], the Emax is 99% and the IC50 was determined as 379 nM.

For the compound `NS(=O)(=O)c1cc(NC(=O)Cc2ccccc2Cl)ccc1-n1cncn1` [Example 16, 2-(2-Chlorophenyl)-N-[3-sulfamoyl-4-(1H-1,2,4-triazol-1-yl)phenyl]acetamide], the Emax amounted to 89% and the IC50 is 262 nM. On to `NS(=O)(=O)c1cc(NC(=O)Cc2ccccc2Cl)ccc1-n1cnc(C(F)F)n1` [Example 17, 2-(2-Chlorophenyl)-N-{4-[3-(difluoromethyl)-1H-1,2,4-triazol-1-yl]-3-sulfamoyl-phenyl}acetamide], for which the Emax came to 89% and the half-maximal inhibitory concentration (IC50) was determined as 288 nM. As for `NS(=O)(=O)c1cc(NC(=O)Cc2ccccc2F)ccc1-n1cnc(C(F)F)n1` [Example 18, N-{4-[3-(Difluoromethyl)-1H-1,2,4-triazol-1-yl]-3-sulfamoylphenyl}-2-(2-fluoro-phenyl)acetamide], the Emax is 66% and the IC50 came to 4700 nM. On to `NS(=O)(=O)c1cc(NC(=O)Cc2ccccc2F)ccc1-n1cc(C(F)(F)F)cn1` [Example 20, 2-(2-Fluorophenyl)-N-{3-sulfamoyl-4-[4-(trifluoromethyl)-1H-pyrazol-1-yl]phenyl}-acetamide], for which the Emax worked out at 67%. As to `NS(=O)(=O)c1cc(NC(=O)Cc2ccccc2C(F)F)ccc1-n1cc(C(F)(F)F)cn1` [Example 21, 2-[2-(Difluoromethyl)phenyl]-N-{3-sulfamoyl-4-[4-(trifluoromethyl)-1H-pyrazol-1-yl]phenyl}acetamide], the Emax amounted to 67% and the 50% inhibitory concentration (IC50) turned out to be 170 nM. For `NS(=O)(=O)c1cc(NC(=O)Cc2ccccc2C(F)(F)F)ccc1-n1cc(C(F)(F)F)cn1` [Example 22, N-{3-Sulfamoyl-4-[4-(trifluoromethyl)-1H-pyrazol-1-yl]phenyl}-2-[2-(trifluoromethyl)-phenyl]acetamide], the Emax is 76% and the IC50 was 224 nM.

Values taken from patent US11524938B2, “Aromatic sulfonamide derivatives” (Bayer Pharma Aktiengesellschaft, priority 2016, dated 2022).
